Blank lines part the entries; values can stand above or below the molecule they belong to.
Assays:
[1] = system: P. chrysosporium ligninolytic culture; assay type: cell-based, Phanerochaete chrysosporium; details: initial 200 mg-per-liter, ten days of growth
Procedure: Decolorization of dyes in cultures were monitored at their absorption maxima at pH 4.5, or using HPLC. A Spherisorb ODS2 C18 column was used for HPLC analysis with a sequence of DMS buffer at pH 4.5 and acetonitrile as solvents (5 min 100% DMS, 15 min 100% acetonitrile, 18 min 100% acetonitrile, 19 min 100% DMS, 20 min 100% DMS, 5 min postran 100% DMS). Peaks were monitored at 260 and 450 nm. Results from spectrophotometric and HPLC methods were compared.
The initial concentration of dye was 200 mg-per-liter. Numbers represent mg-per-liter of dye remaining in the cultures.

P. chrysosporium = test: Mineralization of 14C-labeled dyes by shaken cultures; assay type: cell-based, Phanerochaete chrysosporium; details: P. chrysosporium
Procedure: Agitated cultures containing 100,000 to 150,000 dpm of azo dye at a concentration of 200 mg/liter for P. chrysosporium and 50 mg/liter for S. chromofuscus were incubated at 37° C. for 20 days with shaking at 200 rpm. For each mineralization experiment six replicates-per-culture were run for P. chrysosporium and three replicates-per-culture for S. chromofuscus. Each culture flask contained a CO2 trap consisting of a small glass cup connected to the bottom of the rubber stopper. The cup contained 1 ml of 1N NaOH. Samples were taken every 2 days, and after each sampling cultures were flushed with 100% oxygen for 30 s. At the sampling time, the stopper was removed and the NaOH containing trapped CO2 was transferred to a 20-ml scintillation vial, and the cup was then rinsed twice with 1 ml of water. Two ml of rinse water were also transferred to the vial. Finally, 10 ml of Ecolite scintillation cocktail (ICN Biochemicals Inc., Irvine, Calif.) were added to each vial. Vials, after mixing, were stored in the dark for 24 h. The cpm of trapped radioactivity was then determined in a Packard Tri-Carb liquid scintillation analyzer, Model 1500, using the ^14 C quench standards and SIS numbers.
Either a charcoal-containing polyurethane sponge (Bio-Rad Laboratories, Richmond, Calif.) or 2-methoxyethanol was used to trap volatile organic compounds released during mineralization experiments. The sponge (1 cm^3) replaced the 1N NaOH solution in the small glass cap attached to the rubber stopper; other conditions were as before for the ^14 CO2 experiments. For scintillation counting, the charcoal sponges were dissolved in 1 ml of hyamine hydroxide contained in scintillation vials (1M solution in methanol; NEN Research Products, Boston, Mass.) held at 55° C. for 2 h. Ten ml of Ecolite scintillation cocktail were then added and the cpm was measured.
In the second procedure, cultures with CO2 traps were flushed with oxygen for 10 min, and the organic volatiles present were trapped in 10 ml of 2-methoxyethanol mixed with 10 ml Ecolite.
The removal of radioactivity from the media was determined by measuring the amount of ^14 C label in 0.1 ml of the medium at time 0 and 21 days for each culture. Uninoculated cultures were used as evaporation controls. […] At the end of each mineralization experiment, culture broths were acidified with 5 ml of 1M H3 PO4, fresh 1N NaOH was added to the trap, and the cultures were shaken overnight. No additional releases of ^14 CO2 were observed. The radioactivity assimilated by the cells was measured by solubilizing biomass harvested from each 21-day-old culture in an equal volume of hyamine hydroxide solution. Before solubilization, cells were washed three times with 50 ml of distilled water to remove adsorbed dyes. Ecolite 10 ml was added to the mixture, which was vortexed vigorously. To increase counting efficiency, the solution of biomass-hyamine-scintillation cocktail was further diluted 10 to 20 times with fresh Ecolite before counting.

[2] = biological target: T1, horseradish peroxidase type II (Armoracia rusticana, UniProt P00433); test: Oxidation of azo dyes by horseradish peroxidase preparation; assay type: biochemical; details: pH 8, 37° C., H2O2
T1 sequence (P00433 31-338): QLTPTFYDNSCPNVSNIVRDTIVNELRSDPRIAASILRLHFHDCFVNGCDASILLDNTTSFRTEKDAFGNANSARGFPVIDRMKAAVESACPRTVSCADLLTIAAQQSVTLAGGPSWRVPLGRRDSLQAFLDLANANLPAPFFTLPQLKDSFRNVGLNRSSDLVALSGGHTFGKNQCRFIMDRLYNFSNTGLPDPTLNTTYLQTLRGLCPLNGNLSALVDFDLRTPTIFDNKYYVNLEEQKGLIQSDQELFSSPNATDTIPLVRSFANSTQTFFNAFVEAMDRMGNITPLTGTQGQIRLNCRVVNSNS
Procedure: The reaction was started with the addition of 100 μl of 50 mM H2 O2 and was followed for 1 min at 37° C. Controls were run with no addition of H2 O2 or with the addition of the hemeperoxidase inhibitor KCN (final concentration 25 μM).

[3] = system: Phanerochaete chrysosporium; test: Substrate removal / decolorization by P. chrysosporium culture; assay type: cell-based; details: for % Decolorization, P. chrysosporium: 14 days
Procedure: Environ. Microbiol., 1981, 42:290-296), with the addition of 75 mg adenine (6-aminopurine) and 27 mg L-phenylalanine-per-liter. This addition accelerated the growth of the fungus without inhibiting ligninase activity. […] […] Cultures were incubated at 37° C. for 7 to 15 days with shaking (250 rpm). Solid agar media were also employed.

Mn(II)-peroxidase = test: Oxidation of dyes by P. chrysosporium Mn(II)-peroxidase; assay type: biochemical, Phanerochaete chrysosporium; details: crude enzyme, conditions specific for Mn(II)-peroxidase
Procedure: (§1) The peroxidase assay was carried out using a composition having a final volume of 1.0 ml. The reaction mixture contained 250 μl of 100 mM HEPES buffer (pH 8), 500 μl of 10 mM 2,4-dichlorophenol, 100 μl of 1 mM aminoantipyrine, 50 μl enzyme preparation and 100 μl 50 mM H2 O2. The reaction was initiated by the addition of hydrogen peroxide at 37° C. One unit of peroxidase activity was expressed as the amount of enzyme required for an increase of one absorbance-unit-per-minute at 510 nm. Assays of manganese peroxidase and of ligninase from P. chrysosporium were carried out as previously described by Paszczynski et al in "Manganese peroxidase of Phanerochaete chrysosporium: Purification," Methods Enzymol. 161:264-270, incorporated herein by reference. […] Biophys., 1986, 44:750-765. Preparation and assay of ligninase and manganese peroxidase from these P. chrysosporium cultures were carried out as previously reported by Paszczynski, et al., Methods Enzymol., 1988, 161:264-270. […] Purification," Methods Enzymol. 161:264-270. […] Cycle time was 10 seconds, with the last measure after three minutes of incubation.

ligninase = test: Oxidation of dyes by P. chrysosporium ligninase (crude preparation); assay type: biochemical, Phanerochaete chrysosporium; details: crude enzyme, conditions specific for ligninase
Procedure: as §1, with “30 seconds” for “10 seconds,”, “15 minutes. […] The reaction conditions were the same as for acid yellow 9. No decolorization” for “three minutes”, “the synthesized dyes by ligninase was detected.” for “incubation.”

[4] = system: S. chromofuscus A11 extracellular peroxidase; test: Oxidation of azo dyes by S. chromofuscus A11 crude enzyme preparation; assay type: biochemical, Streptomyces chromofuscus A11; details: pH 8, 37° C., H2O2
Procedure: Environ. Microbiol., 1988, 54:3057-3063. […] Microbiol. Biotechnol., 34:661-667. Incubation took place at 37° C. with shaking at 250 rpm. The culture supernatant was collected after 48 h incubation, and vacuum-filtered through Whatman no. 1 filter paper. The filtrate was concentrated approximately 40- to 50-fold by ultrafiltration through an Amicon ultrafiltration stirred cell (series no. 8000, Amicon Corp.) with a disc PM-10 filter (diameter, 76 mm). Protein in the concentrated filtrate was then precipitated from solution with 80% ammonium sulfate. The precipitate was collected by centrifugation (15 min, 10,000 rpm). The pellet was resuspended in 10 ml of 20 mM HEPES buffer (pH 8) and dialyzed overnight against the same buffer at 4° C. These preparations were then stored in 1-ml aliquots at -20° C. until used. Before using, the preparation was filtered through a NAP-25 Sephadex G-25 disposable column (Pharmacia) in order to separate a yellowish protein fraction from a pink low-molecular-weight fraction. The yellowish fraction was used as the source of enzyme. […] The reaction was started with the addition of 100 μl of 50 mM H2 O2 and was followed for 1 min at 37° C. Controls were run with no addition of H2 O2 or with the addition of the hemeperoxidase inhibitor KCN (final concentration 25 μM).

[5] = beginning concentration 100 ppm
[6] = beginning concentration 150 ppm
[7] = beginning concentration 200 ppm
[8] = beginning concentration 300 ppm

SMILES: O=S(=O)(O)c1ccc(N=Nc2c(O)ccc3ccccc23)c2ccccc12 [compound 23]
Dye remaining in the cultures, HPLC [1]: 72.43 mg-per-liter | Dye remaining in the cultures, Spectrophotometry [1]: 89.27 mg-per-liter

SMILES: Nc1ccc2c(O)c(N=Nc3ccc(N=Nc4ccc(N=Nc5cc(S(=O)(=O)O)c6cccc(S(=O)(=O)O)c6c5)c5ccccc45)c4ccc(S(=O)(=O)O)cc34)c(S(=O)(=O)O)cc2c1 [compound 25]
Dye remaining in the cultures, HPLC [1]: 14.86 mg-per-liter | Dye remaining in the cultures, Spectrophotometry [1]: 9.66 mg-per-liter

SMILES: CCOc1ccc(N=Nc2ccc(C=Cc3ccc(N=Nc4ccc(OCC)cc4)cc3S(=O)(=O)O)c(S(=O)(=O)O)c2)cc1 [compound 27]
Dye remaining in the cultures, HPLC [1]: 29.42 mg-per-liter | Dye remaining in the cultures, Spectrophotometry [1]: 28.33 mg-per-liter

SMILES: O=S(=O)(O)[14c]1[14cH][14cH][14c](N=Nc2c(O)ccc3ccccc23)[14cH][14cH]1 [compound 36]
Degradation began earlier than dye 37 (P. chrysosporium): 2 days | Degradation relative to dye 37 (P. chrysosporium; 21-day incubation): 2.5 times

SMILES: Cc1ccc(S(=O)(=O)Oc2ccc(N=Nc3ccc(-c4ccc(N=Nc5c(O)ccc6cc(S(=O)(=O)O)cc(S(=O)(=O)O)c56)c(C)c4)cc3C)cc2)cc1 [compound 21]
Dye remaining in the cultures, HPLC [1]: 103.62 mg-per-liter | Dye remaining in the cultures, Spectrophotometry [1]: 102.38 mg-per-liter

SMILES: COc1ccccc1NC(=O)C(N=Nc1ccc(-c2nc3ccc(C)c(S(=O)(=O)O)c3s2)cc1S(=O)(=O)O)=C(C)O [compound 29]
Dye remaining in the cultures, HPLC [1]: 109.39 mg-per-liter | Dye remaining in the cultures, Spectrophotometry [1]: 108.92 mg-per-liter

SMILES: COc1cc(-c2ccc(N=Nc3c(S(=O)(=O)O)cc4cc(S(=O)(=O)O)cc(N)c4c3O)c(OC)c2)ccc1N=Nc1c(S(=O)(=O)O)cc2cc(S(=O)(=O)O)cc(N)c2c1O [compound 22]
Dye remaining in the cultures, HPLC [1]: 12.28 mg-per-liter | Dye remaining in the cultures, Spectrophotometry [1]: 7.64 mg-per-liter

SMILES: Nc1ccc2cc(S(=O)(=O)O)cc(O)c2c1N=Nc1ccc(NC(=O)Nc2ccc(N=Nc3c(N)ccc4cc(S(=O)(=O)O)cc(O)c34)c(S(=O)(=O)O)c2)cc1S(=O)(=O)O [compound 26]
Dye remaining in the cultures, HPLC [1]: 6.98 mg-per-liter | Dye remaining in the cultures, Spectrophotometry [1]: 4.33 mg-per-liter

Oxidation rate of azo dyes, Horseradish peroxidase [2]: 0.32 μmoles per minute per ml | % Decolorization, P. chrysosporium ([3]; initial concn 150 ppm): 79% | % Decolorization, P. chrysosporium ([3]; initial concn 300 ppm): 74% | Oxidation rate of azo dyes, P. chrysosporium Mn-peroxidase (Mn(II)-peroxidase): 0.72 μmoles per minute per ml | Oxidation rate of azo dyes, P. chrysosporium Ligninase (ligninase): 1.03 μmoles per minute per ml | Oxidation rate of azo dyes, S. chromofuscus peroxidase [4]: 0.50 μmoles per minute per ml
SMILES: COc1ccc(N=Nc2ccc(S(=O)(=O)O)cc2)cc1OC [compound 17]
Concentration of substrate after ten days cultivation with P. chrysosporium [3, 5]: 29.803 ppm | Concentration of substrate after ten days cultivation with P. chrysosporium [3, 6]: 58.942 ppm | Concentration of substrate after ten days cultivation with P. chrysosporium [3, 7]: 93.250 ppm | Concentration of substrate after ten days cultivation with P. chrysosporium [3, 8]: 136.057 ppm

SMILES: Nc1c(N=Nc2ccc(-c3ccc(N=Nc4cc(S(=O)(=O)O)c5ccccc5c4N)cc3)cc2)cc(S(=O)(=O)O)c2ccccc12 [compound 20]
Dye remaining in the cultures, HPLC [1]: 62.20 mg-per-liter | Dye remaining in the cultures, Spectrophotometry [1]: 52.01 mg-per-liter

Oxidation rate of azo dyes, Horseradish peroxidase [2]: 0.12 μmoles per minute per ml | Oxidation rate of azo dyes, P. chrysosporium Mn-peroxidase (Mn(II)-peroxidase): 0.09 μmoles per minute per ml | Oxidation rate of azo dyes, P. chrysosporium Ligninase (ligninase): 1.38 μmoles per minute per ml | Oxidation rate of azo dyes, S. chromofuscus peroxidase [4]: 0.15 μmoles per minute per ml
SMILES: Nc1ccc(N=Nc2ccc(S(=O)(=O)O)cc2)cc1S(=O)(=O)O [compound 18]
Concentration of substrate after ten days cultivation with P. chrysosporium [3, 5]: 8.387 ppm | Concentration of substrate after ten days cultivation with P. chrysosporium [3, 6]: 20.342 ppm | Concentration of substrate after ten days cultivation with P. chrysosporium [3, 7]: 40.875 ppm | Concentration of substrate after ten days cultivation with P. chrysosporium [3, 8]: 77.099 ppm
